Where two headings read alike, the source gives them in different places.
System: compound-treated mice
Assay: Neuropharmacological assay (SmartCube): behavioral activity signature and minimal effective dose
Type: in vivo
Details: for minimal effective dose: Mus musculus, ip, MED = dose having 50% or more total activity; for AD: ADHD (probability of activity signature) / AG: analgesic (probability of activity signature) / AX: anxiolytic (probability of activity signature) / CE: cognitive enhancer (probability of activity signature) / DP: anti-depressant (probability of activity signature) / MS: mood stabilizer (probability of activity signature) / PS: anti-psychotic (probability of activity signature) / SD: sedative hypnotic (probability of activity signature) / UN: uncharacterized CNS activity (probability of activity signature): i.p. 15 min before test, most efficacious dose(s)
Procedure, shortened: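 Video-recorded behavior is compared algorithmically against a reference-compound database, yielding class probabilities (best dose reported). Compounds given i.p. in NMP/PEG/propylene glycol 15 min pre-test at 3 doses; potency as MED, the dose (mpk, range usually 0.3–30) reaching ≥50% total activity.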

[1] = read-out: Potency: minimal effective dose (MED)
[2] = read-out: Potency: minimal effective dose (MED), binned

Compound	minimal effective dose [1] [mg/kg]	AD: ADHD (probability of activity signature)	AG: analgesic (probability of activity signature)	AX: anxiolytic (probability of activity signature)	CE: cognitive enhancer (probability of activity signature)	DP: anti-depressant (probability of activity signature)	MS: mood stabilizer (probability of activity signature)	PS: anti-psychotic (probability of activity signature)	SD: sedative hypnotic (probability of activity signature)	UN: uncharacterized CNS activity (probability of activity signature)	minimal effective dose [2] [mg/kg]
N[C@H]1COCc2c(Cl)cccc21 [Example 132]	< 3	+ (LOQ ≤ + <5%)	++ (5% ≤ ++ <25%)	+++ (25% ≤ +++ <50%)	+++ (25% ≤ +++ <50%)	++ (5% ≤ ++ <25%)	+ (LOQ ≤ + <5%)	++ (5% ≤ ++ <25%)	++ (5% ≤ ++ <25%)	+++ (25% ≤ +++ <50%)	
Cc1cccc2c1[C@H](N)[C@H](C)OC2.Cl [Example 82]	< 3	+ (LOQ ≤ + <5%)	++ (5% ≤ ++ <25%)	+++ (25% ≤ +++ <50%)	++ (5% ≤ ++ <25%)	++ (5% ≤ ++ <25%)	+ (LOQ ≤ + <5%)	++ (5% ≤ ++ <25%)	++ (5% ≤ ++ <25%)	+++ (25% ≤ +++ <50%)	
C[C@@H]1OCc2cccc(F)c2[C@@H]1N.Cl [Example 217]		+ (LOQ ≤ + <5%)	+ (LOQ ≤ + <5%)	+++ (25% ≤ +++ <50%)	++ (5% ≤ ++ <25%)	++ (5% ≤ ++ <25%)	+ (LOQ ≤ + <5%)	++ (5% ≤ ++ <25%)	+ (LOQ ≤ + <5%)	++++ (50% ≤ ++++)	10 to 30
Cl.NC1COCc2ccc(-c3ccccc3)cc21 (stereo not drawn) [Example 7, 6-Phenylisochroman-4-amine hydrochloride]	10 to 30	+ (LOQ ≤ + <5%)	+ (LOQ ≤ + <5%)	++ (5% ≤ ++ <25%)	++ (5% ≤ ++ <25%)	++ (5% ≤ ++ <25%)	++ (5% ≤ ++ <25%)	++ (5% ≤ ++ <25%)	+ (LOQ ≤ + <5%)	+++ (25% ≤ +++ <50%)	
CCN(C)C(=O)Oc1ccc2c(c1)C(N(C)C)COC2.Cl (stereo not drawn) [Example 284]		+ (LOQ ≤ + <5%)	+ (LOQ ≤ + <5%)	++ (5% ≤ ++ <25%)	+ (LOQ ≤ + <5%)	++ (5% ≤ ++ <25%)	+++ (25% ≤ +++ <50%)	++ (5% ≤ ++ <25%)	++ (5% ≤ ++ <25%)	+ (LOQ ≤ + <5%)	10 to 30
CC[C@H]1OCc2ccc(F)cc2[C@@H]1N.Cl [Example 202]		+ (LOQ ≤ + <5%)	++ (5% ≤ ++ <25%)	+++ (25% ≤ +++ <50%)	++ (5% ≤ ++ <25%)	++ (5% ≤ ++ <25%)	+ (LOQ ≤ + <5%)	++ (5% ≤ ++ <25%)	+ (LOQ ≤ + <5%)	++++ (50% ≤ ++++)	< 3
